In PubChem BioAssay AID248 (DTP/NCI, 2004):
Toxic doses and inconclusive results are not listed. Rule as the data show it: active = T/C of 150% or more; inactive = T/C below 125%.

Tested on: L1210 leukemia ip in BDF1 mice, survival T/C
Experiment: NCI In Vivo Anticancer Drug Screen. Data for tumor model L1210 Leukemia (intraperitoneal) in B6D2F1 (BDF1) mice
Details: endpoint: mean survival time, higher = longer survival
Outline: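 Ratio derived from survival: compound-dosed mice over vehicle-dosed mice, all bearing a transplantable tumor.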

[1] = dose: 100.0 mg/kg/injection, schedule: Q01DX009 (ip), vehicle: saline
[2] = dose: 100.0 mg/kg/injection, schedule: Q04DX003 (ip), vehicle: saline
[3] = dose: 200.0 mg/kg/injection, schedule: Q01DX009 (ip), vehicle: saline
[4] = dose: 200.0 mg/kg/injection, schedule: Q04DX003 (ip), vehicle: saline
[5] = dose: 400.0 mg/kg/injection, schedule: Q04DX003 (ip), vehicle: saline
[6] = dose: 100.0 mg/kg/injection, schedule: Q04DX002 (ip), vehicle: saline with Tween-80
[7] = dose: 200.0 mg/kg/injection, schedule: Q04DX002 (ip), vehicle: saline with Tween-80
[8] = dose: 100.0 mg/kg/injection, schedule: Q01DX009 (ip), vehicle: Klucel (hydroxypropylcellulose) (HPC)
[9] = dose: 200.0 mg/kg/injection, schedule: Q01DX009 (ip), vehicle: Klucel (hydroxypropylcellulose) (HPC)
[10] = dose: 100.0 mg/kg/injection, schedule: Q04DX003 (ip), vehicle: saline with Tween-80
[11] = dose: 200.0 mg/kg/injection, schedule: Q04DX003 (ip), vehicle: saline with Tween-80
[12] = dose: 400.0 mg/kg/injection, schedule: Q04DX003 (ip), vehicle: saline with Tween-80
[13] = dose: 100.0 mg/kg/injection, schedule: Q01DX009 (ip), vehicle: saline with Tween-80
[14] = dose: 100.0 mg/kg/injection, schedule: Q01DX001 (ip), vehicle: saline
[15] = dose: 200.0 mg/kg/injection, schedule: Q01DX001 (ip), vehicle: saline
[16] = dose: 100.0 mg/kg/injection, schedule: Q04DX003 (ip), vehicle: Klucel (hydroxypropylcellulose) (HPC)
[17] = dose: 200.0 mg/kg/injection, schedule: Q04DX003 (ip), vehicle: Klucel (hydroxypropylcellulose) (HPC)
[18] = dose: 400.0 mg/kg/injection, schedule: Q04DX003 (ip), vehicle: Klucel (hydroxypropylcellulose) (HPC)

Measured: T/C

O=C(/C=C\C(=O)c1ccc(Cl)cc1)c1ccc(Cl)cc1
inactive: dose: 50.0 mg/kg/injection, schedule: Q04DX003 (ip), vehicle: carboxymethylcellulose (CMC) 104 % of control | dose: 100.0 mg/kg/injection, schedule: Q04DX003 (ip), vehicle: carboxymethylcellulose (CMC) 112 % of control | dose: 200.0 mg/kg/injection, schedule: Q04DX003 (ip), vehicle: carboxymethylcellulose (CMC) 102 % of control

CN(C)/C=C(/C#N)C(=O)N1CCCC1
inactive: [1] 106 % of control | [2] 101 % of control | [3] 102 % of control | [4] 101 % of control | dose: 400.0 mg/kg/injection, schedule: Q01DX009 (ip), vehicle: saline 112 % of control | [5] 117 % of control

COc1cc(N(CCCl)CCCl)ccc1C=Nc1ccc2c(c1)nc(C)n2C
inactive: dose: 68.8 mg/kg/injection, schedule: Q04DX002 (ip), vehicle: Klucel (hydroxypropylcellulose) (HPC) 104 % of control | dose: 137.5 mg/kg/injection, schedule: Q04DX002 (ip), vehicle: Klucel (hydroxypropylcellulose) (HPC) 101 % of control | dose: 275.0 mg/kg/injection, schedule: Q04DX002 (ip), vehicle: Klucel (hydroxypropylcellulose) (HPC) 117 % of control

CCOC(=O)c1ccc(Nc2sc(C(=O)c3ccc(-c4ccccc4)cc3)c(N)c2C#N)cc1
inactive: [6] 92 % of control | [7] 86 % of control | dose: 400.0 mg/kg/injection, schedule: Q04DX002 (ip), vehicle: saline with Tween-80 95 % of control

Cc1cccc(Cl)c1NC(=O)c1cc([N+](=O)[O-])cc([N+](=O)[O-])c1
inactive: [8] 100 % of control | [9] 96 % of control

COC(=O)N1CC=CCN1C(=O)OC
inactive: [2] 94 % of control | [4] 116 % of control | [5] 115 % of control

C1=Cc2ccccc2/C1=C/c1ccc(/C=C2\C=Cc3ccccc32)cc1
inactive: [10] 92 % of control | [11] 89 % of control | [12] 89 % of control

CCCCCCCCCCCC[Si](c1ccccc1)(c1ccccc1)c1ccccc1
inactive: dose: 100.0 mg/kg/injection, schedule: Q04DX003 (ip), vehicle: other 94 % of control | dose: 200.0 mg/kg/injection, schedule: Q04DX003 (ip), vehicle: other 96 % of control | dose: 400.0 mg/kg/injection, schedule: Q04DX003 (ip), vehicle: other 90 % of control

CCCCCCCCCCCCCCCCS(=O)(=O)c1ccc(S(=O)(=O)N/N=c2/sc3ccc(S(=O)(=O)O)cc3n2C)cc1C(=O)O
inactive: dose: 50.0 mg/kg/injection, schedule: Q01DX009 (ip), vehicle: saline with Tween-80 97 % of control | [13] 94 % of control

CCCC(NC(=O)C(C)N)C(=O)O (stereo not given)
inactive: dose: 12.5 mg/kg/injection, schedule: Q04DX002 (ip), vehicle: saline 105 % of control | dose: 25.0 mg/kg/injection, schedule: Q04DX002 (ip), vehicle: saline 102 % of control | dose: 50.0 mg/kg/injection, schedule: Q04DX002 (ip), vehicle: saline 102 % of control

Cc1ccc(OS(=O)(=O)C2CC2c2ccccc2)cc1 (stereo not given)
inactive: [14] 92 % of control | [2] 102 % of control | [15] 97 % of control | [4] 98 % of control | dose: 400.0 mg/kg/injection, schedule: Q01DX001 (ip), vehicle: saline 98 % of control | [5] 94 % of control

O=C1c2ccccc2-c2nc3cncnc3nc21 (tested in a mixture with another compound)
inactive: dose: 50.0 mg/kg/injection, schedule: Q01DX009 (ip), vehicle: saline 98 % of control | [1] 101 % of control | [2] 95 % of control | [3] 101 % of control | [4] 101 % of control

CC1(c2ccccc2)OCCCO1
inactive: dose: 100.0 mg/kg/injection, schedule: Q01DX001 (ip), vehicle: saline with Tween-80 100 % of control | dose: 200.0 mg/kg/injection, schedule: Q01DX001 (ip), vehicle: saline with Tween-80 98 % of control | dose: 400.0 mg/kg/injection, schedule: Q01DX001 (ip), vehicle: saline with Tween-80 107 % of control

O=C1OCc2cc[n+]([O-])cc21
inactive: dose: 100.0 mg/kg/injection, schedule: Q01DX001 (ip), vehicle: carboxymethylcellulose (CMC) 97 % of control | dose: 200.0 mg/kg/injection, schedule: Q01DX001 (ip), vehicle: carboxymethylcellulose (CMC) 96 % of control | dose: 400.0 mg/kg/injection, schedule: Q01DX001 (ip), vehicle: carboxymethylcellulose (CMC) 107 % of control

CCSc1cc(C(=O)O)cc([N+](=O)[O-])c1
inactive: [2] 104 % of control | [4] 93 % of control | [5] 94 % of control

O=c1c2ccccc2nc(-c2ccccc2)n1O
inactive: [16] 103 % of control | [17] 106 % of control | [18] 91 % of control

CC/C(=N/N=C(N)N)c1ccc(NC(=O)Nc2ccc(/C(CC)=N/N=C(N)N)cc2)cc1
inactive: dose: 2.5 mg/kg/injection, schedule: Q01DX009 (ip), vehicle: saline 103 % of control | dose: 5.0 mg/kg/injection, schedule: Q01DX009 (ip), vehicle: saline 121 % of control | dose: 10.0 mg/kg/injection, schedule: Q01DX009 (ip), vehicle: saline 107 % of control

NC(N)=N/N=C/c1ccccc1 (tested in a mixture with another compound)
inactive: dose: 12.5 mg/kg/injection, schedule: Q04DX003 (ip), vehicle: acetone 93 % of control | dose: 25.0 mg/kg/injection, schedule: Q04DX003 (ip), vehicle: acetone 96 % of control | dose: 50.0 mg/kg/injection, schedule: Q04DX003 (ip), vehicle: acetone 91 % of control

FC(F)(F)C(Cl)(Cc1ccc2ccccc2n1)C(F)(F)F
inactive: dose: 50.0 mg/kg/injection, schedule: Q04DX003 (ip), vehicle: saline with Tween-80 102 % of control | [13] 105 % of control | [10] 101 % of control | dose: 200.0 mg/kg/injection, schedule: Q01DX009 (ip), vehicle: saline with Tween-80 100 % of control | [11] 102 % of control | dose: 400.0 mg/kg/injection, schedule: Q01DX009 (ip), vehicle: saline with Tween-80 103 % of control | [12] 94 % of control

CC1CS(=O)(=O)O1 (stereo not given)
inactive: [6] 114 % of control | [7] 105 % of control

O=[N+]([O-])C(Br)(c1ccccc1)S(=O)(=O)Cc1ccccc1 (stereo not given)
inactive: [8] 95 % of control | [16] 100 % of control | [9] 101 % of control | [17] 95 % of control | [18] 102 % of control

COC(=O)/C=C(\C)Oc1c(Cl)c(Cl)c(Cl)c(Cl)c1Cl
inactive: dose: 100.0 mg/kg/injection, schedule: Q01DX009 (ip), vehicle: saline sonified 96 % of control | dose: 200.0 mg/kg/injection, schedule: Q01DX009 (ip), vehicle: saline sonified 100 % of control | dose: 400.0 mg/kg/injection, schedule: Q01DX009 (ip), vehicle: saline sonified 100 % of control

CC(=O)Nc1nc(C(=O)O)c(CCCCc2ccccc2)c(=O)[nH]1
inactive: dose: 100.0 mg/kg/injection, schedule: Q01DX001 (ip), vehicle: Klucel (hydroxypropylcellulose) (HPC) 95 % of control | dose: 200.0 mg/kg/injection, schedule: Q01DX001 (ip), vehicle: Klucel (hydroxypropylcellulose) (HPC) 98 % of control | dose: 400.0 mg/kg/injection, schedule: Q01DX001 (ip), vehicle: Klucel (hydroxypropylcellulose) (HPC) 101 % of control

CSC(N)=Nc1c(C)cccc1C
inactive: dose: 50.0 mg/kg/injection, schedule: Q04DX003 (ip), vehicle: saline 102 % of control | [14] 98 % of control | [2] 106 % of control | [15] 100 % of control | [4] 101 % of control
